Measurements as given in patent US5352602A, “Isoamylase and process for producing the same” (Amano Pharmaceutical Co., Ltd., priority 1992, dated 1994).
“Also recorded” adds a separate entry of the source. Read-outs that look alike come from different tables or passages of the source.

Columns and labels:
[1] = tested on: isoamylase of Xanthomonas maltophilia S-517; assay: Influence of inhibitors and metal salts on isoamylase activity; type: biochemical; details: for Inhibition by Metal Salt: Table 3, isoamylase of Xanthomonas maltophilia S-517 (Invention); for Inhibition of the enzyme of the present invention: in words
Procedure: Measurements of activity of the enzyme of the present invention were made as follows in accordance with the method of Maruo-Kobayashi (see NIHON NOGEI KAISHI, Vol. 23, pp. 115-120 (1949).
A reaction system consisting of 2.0 ml of a 1.0% soluble starch (glutinous rice) solution, 0.4 ml of a 0.5M acetate buffer solution (pH=3.5), and 0.4 ml of an enzyme liquid was allowed to react at 40° C. for 30 minutes. To the reaction system was added 0.4 ml of a 0.01N iodine solution. After dilution with water to 10 ml, the absorbance at 610 nm was measured. The enzyme activity on an absorbance increase of 0.1 within 1 hour was taken as 10 units.

[2] = tested on: isoamylase of Pseudomonas origin; details: cited from earlier work; for Inhibition by Metal Salt: Table 3, isoamylase of Pseudomonas origin; for Inhibition of the enzyme derived from Pseudomonas: in words
[3] = tested on: isoamylase of Xanthomonas maltophilia S-517; assay: Substrate specificity of the purified isoamylase; type: biochemical; details: for Substrate specificity: in words; for Initial Velocity: relative, glycogen = 100; for V: velocity of the purified isoamylase on the named substrate

O=[N+]([O-])c1ccc(O)c(CBr)c1 [2-Hydroxy-5-nitrobenzyl bromide]
Percent Inhibition ([1]; inhibitor concentration 0.1 mM): 14.3%

CC(=O)I [Acetyl monoiodide]
Percent Inhibition ([1]; inhibitor concentration 0.1 mM): 10.1% | Percent Inhibition ([1]; inhibitor concentration 5 mM): 34.6%

O=[N+]([O-])[O-].[Ag+] [AgNO3]
Percent Inhibition ([1]; inhibitor concentration 1 mM): 98.0%

[Cl][Cu][Cl] [CuCl2]
Percent Inhibition ([1]; inhibitor concentration 1 mM): 20.7%

O=C(O)CN(CCN(CC(=O)O)CC(=O)O)CC(=O)O [EDTA]
Percent Inhibition ([1]; inhibitor concentration 5 mM): 0%

O=C1O[C@H](CO)[C@@H](O)[C@H](O)[C@H]1O [Glucono-1,5-lactone]
Percent Inhibition ([1]; inhibitor concentration 10 mM): 8.0%

[Cl][Hg][Cl] [HgCl2]
Percent Inhibition ([1]; inhibitor concentration 1 mM): 42.2%

[Cl-].[Cl-].[Mg+2] [MgCl2]
Inhibition by Metal Salt [1]: 26.3% | Inhibition of the enzyme of the present invention [1]: inhibited | Percent Inhibition ([1]; inhibitor concentration 1 mM): 26.3% | Inhibition by Metal Salt [2]: 0% | Inhibition of the enzyme derived from Pseudomonas [2]: not inhibited

O=C1CCC(=O)N1Br [N-Bromosuccinimide]
Percent Inhibition ([1]; inhibitor concentration 0.01 mM): 100.0%

[Cl-].[Na+] [NaCl]
Percent Inhibition [1]: 0%

[F-].[Na+] [NaF]
Inhibition by Metal Salt [1]: 0% | Inhibition of the enzyme of the present invention [1]: not inhibited | Percent Inhibition ([1]; inhibitor concentration 1 mM): 0% | Inhibition by Metal Salt [2]: 19% | Inhibition of the enzyme derived from Pseudomonas [2]: inhibited

O=C(O)c1cc[c]([Hg][Cl])cc1 [PCMB]
Inhibition by Metal Salt [1]: 0% | Inhibition of the enzyme of the present invention [1]: not inhibited | Percent Inhibition ([1]; inhibitor concentration 1 mM): 0% | Inhibition by Metal Salt [2]: 34% | Inhibition of the enzyme derived from Pseudomonas [2]: inhibited

I[I-]I.[K+] [Potassium iodoiodide]
Percent Inhibition ([1]; inhibitor concentration 1 mM): 4.5%

O=C1CCC(=O)O1 [Succinic anhydride]
Percent Inhibition ([1]; inhibitor concentration 5 mM): 8.4%

OCCS [β-Mercaptoethanol]
Percent Inhibition ([1]; inhibitor concentration 10 mM): 31.7%

Ammonium molybdate
Percent Inhibition ([1]; inhibitor concentration 1 mM): 0%

Amylopectin
Substrate specificity [3]: acts | Initial Velocity [3]: 34.7% | V [3]: 2.18 × 10^-1 μmol/min/U

Glycogen
Substrate specificity [3]: actively acts | Initial Velocity [3]: 100% | V [3]: 6.28 × 10^-1 μmol/min/U

Pullulan
Substrate specificity [3]: does not act; also recorded: hardly acts | Initial Velocity [3]: 1.3% | V [3]: 8.45 × 10^-3 μmol/min/U
